Laboratory results reported in patent US12616674B2, “Anti-fibrotic NEU3 inhibitor compounds and methods of use” (The Texas A&M University System, priority 2019, dated 2026).
Entries after “also recorded” stand apart in the source; their conditions may differ.

Tests used:
[1] = system: NEU3 enzymic activity, hepatic steatosis and weight gain in mice; settings: oral administration; cited from earlier work
[2] = system: C57BL/6 mice on regular or high fat diet; test: High fat diet C57BL/6 mice treated with intraperitoneal DANA; format: in vivo, mouse
Description: 12 week old male C57BL/6 mice (#000664; Jackson Laboratory, Farmington, CT) were fed standard rodent chow (15% kcal fat, Teklad 8604, Envigo, Madison WI) and 12-16 week old male C57BL/6 mice (#380050; Jackson) were fed a high fat diet (60% kcal fat, D12492 formula; Research Diets New Brunswick, NJ). Mice were placed on the specified diets for 6 weeks before the start of treatment. To determine if the sialidase inhibitor DANA (#252926-10MG, Millipore-Sigma, Burlington, MA) decreases high-fat diet induced weight gain, mice were treated every 48 hours with intraperitoneal injections of phosphate-buffered saline (PBS) or DANA at 10 mg/kg in PBS, formulated as 4 mg/ml in PBS. Mice were maintained on their specific diets and received injections every 48 hours for 5 weeks (35 days). Animals were housed with a 12-hour/12-hour light-dark cycle (lights on at 7 AM) with free access to food and water. All injections were performed between 9:00 and 11:00 AM. This protocol was done with specific approval of the Texas A&M University institutional animal care and use committee.
To determine the amount of steatosis (accumulation of fat in the cells of the liver), frozen sections were prepared by placing freshly isolated pieces of liver in Surgipath frozen section compound, freezing on dry ice, and storing at −80° C. 10-12 μm cryosections of liver were placed on glass slides and were stained with oil red O to detect the accumulation of lipids as described in Mehlem, A., et al., Imaging of neutral lipids by oil red O for analyzing the metabolic status in health and disease, Nat. Protoc., 2013. 8(6): p. 1149-54.
As in Example 9, mice were maintained on their specific diets and received injections of buffer or DANA every 48 hours for 5 weeks (35 days). Following euthanasia, liver tissue was removed, fixed, and then sectioned as described above.
This situation leads to elevated levels of glucose in the blood system, and following an increase in blood glucose (such as after a meal or an injection of glucose), the body takes longer than normal to reduce blood glucose levels. To determine if DANA could reduce blood glucose levels, on day 33 of the experiment described in […], mice were fasted for 16 hours starting at 5 PM. On day 34, mice received an IP injection of 1.5 g/kg glucose (Amresco, Solon, OH) formulated as 525 mg/ml in PBS. Blood glucose levels were measured before glucose administration (0 minutes), and at 20, 40, 60, 90, and 120 minutes after the injection using commercial blood glucose test strips (CVS Pharmacy, Woonsocket, RI).
Obesity is associated with increased size (weight) of many organs, including white fat and liver. To determine if the sialidase inhibitor DANA could prevent a high fat diet-induced increase in organ weights, at day 35 of the experiment described in Example 9, following euthanasia, organs including epididymal white adipose and inter-scapular brown adipose tissue, liver, spleen, lungs, and kidneys were weighed.

[3] = target: T1, recombinant human sialidase NEU3 (Homo sapiens, UniProt Q9UQ49); test: NEU3-catalyzed L-TGF-β1 activation (TGF-β1 release/concentration assay, active TGF-β1 ELISA); format: biochemical; settings: recombinant human NEU3, L-TGF-β1, PBS pH 6.9, 2 hours 37° C.; read-out: IC50, inhibits human NEU3 in the TGF-β1 concentration (release) assay
T1 construct: purchased Origene TP316537
T1 sequence (Q9UQ49 1-428): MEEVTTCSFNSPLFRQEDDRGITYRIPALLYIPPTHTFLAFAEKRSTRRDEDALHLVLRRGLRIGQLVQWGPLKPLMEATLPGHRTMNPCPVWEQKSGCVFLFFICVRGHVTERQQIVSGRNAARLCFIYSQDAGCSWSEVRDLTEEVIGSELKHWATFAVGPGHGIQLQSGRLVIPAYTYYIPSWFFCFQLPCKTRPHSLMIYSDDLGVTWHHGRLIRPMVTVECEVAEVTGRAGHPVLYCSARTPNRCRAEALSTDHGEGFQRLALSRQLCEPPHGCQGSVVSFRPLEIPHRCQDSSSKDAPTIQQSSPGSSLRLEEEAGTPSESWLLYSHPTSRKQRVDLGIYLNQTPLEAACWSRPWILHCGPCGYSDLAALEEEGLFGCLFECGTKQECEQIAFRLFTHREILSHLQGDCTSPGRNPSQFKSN
Description: To determine if NEU3 can cause latent transforming growth factor-β1 (L-TGF-β1) to release active TGF-β1, 200 ng/ml recombinant human L-TGF-β1 (299-LT/CF, R&D Systems) was incubated with varying concentrations of recombinant human NEU3 (TP316537, Origene) in a total volume of 100 μl of PBS pH 6.9 in a 96-well microplate (651261, Greiner Bio-one, Monroe, NC). The microplates were covered with aluminum foil and incubated at 37° C. for 2 hours. Following incubation, the reaction mixtures were assayed using a TGF-β1 ELISA kit (DY240, R&D Systems) following the manufacturer's protocol with the exception that the reaction mixtures were not processed for acid treatment, so as to measure only active TGF-β1 and not total TGF-β1. The absorbance was read with a SynergyMX plate reader (BioTek, Winooski, VT).
To determine the ability of compounds 1-31 to inhibit human recombinant NEU3 in-vitro, compounds were dissolved in 5 ml water to 20 mM in 15 ml tubes (89039-664, VWR, Radnor, PA), with the exception that 4-hydroxypyridine-2-carboxylic acid, nicotinic acid, and 4-aminopicolinic acid were dissolved in 50 μl DMSO to 2 M, and this was then added to 4.95 ml of water to make a 20 mM stock, and O-(tetrahydro-2H-pyran-2yl) hydroxylamine and salicylic acid were dissolved in 50 μl methanol to 2 M, and this was then added to 4.95 ml of water to make a 20 mM stock. All stocks were stored at 4° C. and used within 2 weeks of preparation. A 10-fold dilution series of the compounds starting at 2 mM were made in PBS pH 6.9 in 1.7 ml clear microtubes (22-281, Genesee Scientific). 100 μl of diluted compound was added to the well of a 96 well plate and then 50 μl of 400 ng/ml recombinant human sialidase NEU3 (TP316537, Origene) in PBS pH 6.9 was added to each well (50 μl PBS pH 6.9 for the control), and the plate was incubated for 30 minutes at 37° C. 50 μl of 800 ng/ml L-TGF-β1 (299-LT/CF, R&D Systems) in PBS pH 6.9 was then added to the well. The plate was covered with aluminum foil and incubated for 2 hours at 37° C., and released active TGF-β1 was assayed as described above.

[4] = HFD mice, DANA vs control HFD, day 35, FIG. 19

IC50 [3]: 250 µM
SMILES: CC(=O)N[C@@H]1C(O)C=C(C(=O)O)O[C@H]1[C@H](O)[C@H](O)CO (stereo partly shown) [Compound 1, DANA]
HFD-induced weight gain [1]: attenuated
NEU3 enzymic activity in the small intestine [1]: inhibited
hepatic steatosis [1]: attenuated
oil red O staining in the liver (neutral lipid accumulation) ([2]; HFD mice, DANA 10 mg/kg i.p. every 48 hours for 35 days, vs saline, FIG. 14): significant reduction
F4/80 positive cells in the liver ([2]; HFD mice, DANA i.p. every 48 hours for 35 days, vs saline, FIG. 15): significant reduction
high fat diet induced weight gain ([2]; HFD mice, DANA i.p. injections vs PBS, after 21 days of treatment, FIG. 16): prevents weight gain; also recorded: significant reduction in weight gain
total glucose levels (AUC over 120 minutes) ([2]; HFD mice, DANA vs HFD control, FIG. 18): significantly lower
blood glucose levels after glucose injection ([2]; HFD mice, DANA vs control HFD, at 60 minutes after 1.5 g/kg IP glucose, FIG. 17): significantly lower
brown fat weight (percent of body weight) [2, 4]: significantly lower
white fat weight (percent of body weight) [2, 4]: significantly lower
weight of mice on regular chow ([2]; regular chow mice, DANA vs PBS injections): no effect; also recorded: no significant differences in weight
organ weights ([2]; regular chow mice, DANA vs PBS, day 35, FIG. 19): no significant differences in any organ weights
oil red O staining in the liver ([2]; regular diet mice, DANA 10 mg/kg i.p. every 48 hours for 35 days, vs saline): no significant difference
F4/80 staining in the liver ([2]; regular diet mice, DANA i.p. every 48 hours for 35 days, vs saline): no significant difference
fasting glucose levels or glucose levels after the glucose injection ([2]; standard chow mice, DANA vs PBS, FIG. 17): no significant differences
